In one data set the test system is dengue virus. In kind it is cell-based.
For data set [1], the system named is kunjin virus. It counts as cell-based.
In data set [2] the test system is VSV. In kind it is cell-based.
The next data set concerns yellow fever virus. It counts as cell-based.
The test system of another data set is a viral challenge. In kind it is cell-based. Conditions: for EC50: read-out: µM of test compounds # (concentration of test compound alone to protect Vero cells against a viral challenge by approximately 50%).
The subject of data set [3] is kunjin virus. It counts as cell-based. The source holds these as a separate data set.
The conditions of data set [4]: cited from earlier work.
Data set [5] relates to VSV. It counts as cell-based. This is another data set of the same source.

Usually IC50 stands for the concentration needed to halve the response being measured.

“And” between values parts separate entries of the source, which are not always exact repeats. Identical values can stand only once. “Also recorded” adds a separate entry of the source. Counter-ions that a name gives are not always drawn. Like-named read-outs stand apart in the source and are kept apart here.

For the compound `CCc1c(CNc2ccc(C(=O)NC(CC(=O)O)C(=O)O)cc2)ccc2nc(N)nc(N)c12` (stereo not drawn) [NSC 184692], the “enhanced the anti-viral effect of human IFNβ” value in the data set on dengue virus turned out to be 10 fold. Moreover, the EC50 in the data set on dengue virus (read-out: ED50 against dengue virus) is 0.12 nM.
Take `CCc1nc(N)nc(N)c1-c1ccc(Cc2ccccc2)c([N+](=O)[O-])c1` [NSC 382046]: the CI in the data set on kunjin virus [1] was 0.99 and 0.96 and 0.83 and 0.75 and 0.70; in the data set with dengue virus, 0.758 and 0.672.
With `Nc1ncnc2c1ncn2[C@@H]1C=C(CO)[C@@H](O)[C@H]1O` [Neplanocin A, neplanocin A], the CI was 0.80 and 0.56 and 0.40 and 0.67 and 0.71 in the data set with VSV [2]; 0.63 and 0.71 and 0.59 in the data set on yellow fever virus.
As to `Cc1nc(N)nc(N)c1-c1ccc(Cl)c(Cl)c1` [NSC 7364], in the data set on dengue virus, the CI was 0.834 and 0.813 and 0.979. Further, in the data set on dengue virus (read-out: NSC 7364 IC50), the IC50 was 372 nM.
Regarding `NC12CC3CC(CC(C3)C1)C2` [amantadine, amantadine hydrochloride], the CI in the data set on kunjin virus [1] is 0.76; in the data set on VSV [2] (hydrochloride), 0.79 and 0.76 and 0.62 and 0.66 and 0.87. In addition, the “Fold enhancement of antiviral activity” value with a viral challenge worked out at 50 fold. In addition, in the data set on a viral challenge, the EC50 was about 1 µM.
As to `O=c1cnn([C@@H]2O[C@H](CO)[C@@H](O)[C@H]2O)c(=O)[nH]1` [6-AU, 6-azauridine], the CI in the data set on VSV [2] was 0.49 and 0.59.
`Nc1nccc2c1ncn2[C@@H]1C=C(CO)[C@@H](O)[C@H]1O` [3-DAN, 3-deazaneplanocin A]: in the data set on VSV [2], the CI was 0.88 and 0.85 and 0.79 and 0.80 and 0.92 and 0.90 and 0.84.
On to `C#Cc1c(C(N)=O)ncn1[C@@H]1O[C@H](CO)[C@@H](O)[C@H]1O` [EICAR, 5-ethynyl-1-β-D-ribofuranosylimidazole-4-carboxamide], for which, in the data set on a viral challenge, the “Fold enhancement of antiviral activity” value is 2 fold and the EC50 is about 1 µM.
Consider `NC(=O)c1[nH]nc([C@@H]2O[C@H](CO)[C@@H](O)[C@H]2O)c1O` [NSC 143095], for which the CI with yellow fever virus was 0.71 and 0.57 and 0.69.
As to `Nc1ccn([C@@H]2C=C(CO)[C@@H](O)[C@H]2O)c(=O)n1` [CPE-C, cyclopentenyl cytosine], in the data set with kunjin virus [3], the “enhancement of the antiviral activity of interferon” value is 10 fold and 5 fold. For the same compound, the CI with VSV [2] was 0.98 and 0.81 and 0.80 and 0.97 and 0.75 and 0.79 and 0.76 and 0.74. The “deaths with refractory hypotension” value in data set [4] (hypotensive patients at 4.7 mg/m^2 per hour of CPE-C) was “Two of the four hypotensive patients died”. Besides, the hypotension entry in data set [4] (patients receiving ≤2.5 mg/m^2 per h CPE-C) was “Hypotension was not seen; also recorded: no hypotension was observed”. Further, the hypotension entry in data set [4] (patients who received 4.7 mg/m^2 per hour of CPE-C, 24 to 48 hours after completion of infusion) is recorded as “Four of the eleven patients”. Besides, in the data set on a viral challenge, the “Fold enhancement of antiviral activity” value is listed as 10 fold and the EC50 was about 0.1 µM.
Take `NC(=O)c1csc([C@@H]2O[C@H](CO)[C@@H](O)[C@H]2O)n1` [Tiazofurin, 2-β-D-ribofuranosylthiazole-4-carboxamide]: the CI in the data set on yellow fever virus was 0.85 and 0.68 and 0.51 and 0.87.
The same measure, in the same setting: the figure for `NC(=O)c1c[se]c([C@@H]2O[C@H](CO)[C@@H](O)[C@H]2O)n1` [Selenofurin, 2-β-D-ribofuranosylselenazole-4-carboxamide] is 0.94 and 0.65 and 0.53 and 0.62 and 0.49.
As to `COc1c(C)c2c(c(O)c1C/C=C(\C)CCC(=O)O)C(=O)OC2` [mycophenolic acid], the CI in the data set on VSV [5] is 0.48 and 0.46 and 0.56. In the data set with VSV [2] (read-out: MPA IC50), the IC50 was found to be 200 nM. Moreover, in the data set with a viral challenge, the “Fold enhancement of antiviral activity” value was 3 fold and the EC50 is about 0.1 µM.

The record behind these values is patent publication EP1154787B1 (priority 1999, dated 2000).
